Test results published in patent US5736529A, “Use of NAD-related compounds in the treatment of neural trauma to inhibit neurodegeneration” (priority 1996, dated 1998).
“Also recorded” adds a separate entry of the source.

What was measured:
[1] = test system: xanthine oxidase; settings: previous studies; cited from earlier work
[2] = test system: DNA in midbrain and striatum of C57BL/6 mice; test: Fluorimetric assay of DNA fragmentation in MPTP treated mice (Table 7); format: in vivo, mouse (C57BL/6); settings: for DNA damage, MIDBRAIN: MPTP 25 mg/kg ip twice, mean ± S.D.
Source text: A fifth group was the control. Brains were removed and the midbrain and striatum isolated.

[3] = test system: dopaminergic neurons in the midbrain; test: Apoptosis in MPTP treated mice (In Situ Apoptosis Detection Kit, tyrosine hydroxylase staining); format: in vivo, mouse (C57BL/6); settings: MPTP 25 mg/kg ip twice; 48 hours
Experimental: After 48 hours the mice were perfused through the left ventricle with phosphate buffered saline (PBS) and then with 4% formaldehyde and 0.2% glutaraldehyde in PBS. The brains were coronally sliced into 50μ sections in a vibrating microtome.
To detect individual cells undergoing apoptosis, the In Situ Apoptosis Detection Kit (Oncor) was used. In this method, the fragmented DNA ends are extended with digoxigenin-dUTP. An anti-digoxigenin antibody then binds to the extension and is detected by a peroxidase reaction as previously described.
Tyrosine hydroxylase staining was done to identify dopaminergic neurons in the substantia nigra. The IgG polyclonal antibodies used were: a rabbit antibody to tyrosine hydroxylase; a sheep antibody to rabbit IgG and a rabbit antibody to horseradish peroxidase with the horseradish peroxidase coupled to the antibody^22. The tyrosine hydroxylase-stained brain slices were mounted on glass slides, dehydrated and coverslipped with balsam.

[4] = test system: hydroxyl radicals generated by the addition of 0.4M hydrogen peroxide; test: Quenching of hydroxyl radicals (EPR); settings: 0.1M nicotinamide
Experimental: (§1) EPR spectra were measured at 23° and 100 kHz in a Bruker model ECS 106 spectrometer (Bruker, Karlsruhe, Germany). The EPR conditions were: modulation amplitude 0.483G, microwave power 20 mW and time constant 1.3 seconds.

[5] = test system: superoxide radicals produced by xanthine oxidase; test: Quenching of superoxide radicals (EPR); settings: 0.1M nicotinamide
Experimental: as §1

[6] = test system: ATP; settings: known effect of nicotinamide; cited from earlier work
[7] = test system: 24 month old mice; settings: mouse, in vivo, 500 mg/kg
[8] = test system: poly(ADP-ribose) polymerase (PADPRP); settings: cited from earlier work

Question: Which “substrate for xanthine oxidase” value [1] does the source give for `C[n+]1ccc(-c2ccccc2)cc1` [MPP+] here?
Answer: Its value is “can act as a substrate for xanthine oxidase”.

Question: Which “DNA fragmentation in the midbrain” value ([2]; 25 mg/kg MPTP twice, 48 hours, p<0.05) does the source give for `CN1CC=C(c2ccccc2)CC1` [MPTP, 1-methyl-4-phenyl-1,2,3,6-tetrahydropyridine] here?
Answer: Its value is “Significant DNA fragmentation”.

Question: What about the “DNA damage, MIDBRAIN” value ([2]; 2 hours) of the same compound?
Answer: The value was 0.9108 ± 0.2233 per gram of tissue.

Question: And the “DNA damage, MIDBRAIN” value ([2]; 48 hours, * p<0.05 vs control)?
Answer: Its value is 1.6373 ± 0.4567 per gram of tissue.

Question: And the “apoptotic cells in dopaminergic neurons in the midbrain” value [3]?
Answer: The value was “Apoptotic cells with shrunken and fragmented nuclei were detected”.

Question: What does the source list for `NC(=O)c1cccnc1` [nicotinamide]?
Answer: quenching of hydroxyl radicals [4]: able to quench hydroxyl radicals; quenching of superoxide radicals [5]: able to quench superoxide radicals; ATP levels [6]: elevate NAD levels and ATP levels; deaths [7]: one out of six; inhibition of poly(ADP-ribose) polymerase [8]: inhibits poly(ADP-ribose) polymerase; also recorded: weak inhibitor
